Measured values taken from PubChem BioAssay (NCI).
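1) Cells in 96-well plates. 2) Compound, 48 h, 5 concentrations. 3) Linear interpolation between surrounding doses. 4) Unreached endpoint = highest concentration. TGI: concentration producing complete growth inhibition.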

Key:
Test in all cases: NCI-60 cell line screen, 48 h
SF-295 CNS = tested on: SF-295 CNS
COLO 205 colon = tested on: COLO 205 colon
TK-10 renal = tested on: TK-10 renal
NCI-H460 lung = tested on: NCI-H460 lung
OVCAR-8 ovarian = tested on: OVCAR-8 ovarian
NCI/ADR-RES ovarian = tested on: NCI/ADR-RES ovarian
MDA-N = tested on: MDA-N
BT-549 breast = tested on: BT-549 breast
SN12C renal = tested on: SN12C renal
HS 578T breast = tested on: HS 578T breast
CAKI-1 renal = tested on: CAKI-1 renal
UACC-257 melanoma = tested on: UACC-257 melanoma
IGROV1 ovarian = tested on: IGROV1 ovarian
PC-3 prostate = tested on: PC-3 prostate
RPMI-8226 leukemia = tested on: RPMI-8226 leukemia
SF-539 CNS = tested on: SF-539 CNS
MDA-MB-231 breast = tested on: MDA-MB-231 breast
HCT-15 colon = tested on: HCT-15 colon
UACC-62 melanoma = tested on: UACC-62 melanoma
U251 CNS = tested on: U251 CNS

Measured: TGI

CC(=O)N1C(Nc2nccs2)CCN1c1ccccc1 (configuration not stated)
> 10 µM: SF-295 CNS | COLO 205 colon | TK-10 renal | NCI-H460 lung | OVCAR-8 ovarian | NCI/ADR-RES ovarian | MDA-N | BT-549 breast | SN12C renal | HS 578T breast | CAKI-1 renal | UACC-257 melanoma | IGROV1 ovarian | PC-3 prostate | RPMI-8226 leukemia | SF-539 CNS | MDA-MB-231 breast | HCT-15 colon

CCOP(=O)(O)C(Nc1ccc(N=Nc2ccccc2)cc1)c1cccc(C(Nc2ccc(N=Nc3ccccc3)cc2)P(=O)(O)OCC)c1 (configuration not stated)
78.1 µM: UACC-62 melanoma
58.1 µM: SF-295 CNS
67.5 µM: PC-3 prostate
> 100 µM: TK-10 renal | NCI-H460 lung | OVCAR-8 ovarian | NCI/ADR-RES ovarian | MDA-N | BT-549 breast | U251 CNS | SN12C renal | HS 578T breast | CAKI-1 renal | UACC-257 melanoma | IGROV1 ovarian | SF-539 CNS | MDA-MB-231 breast | HCT-15 colon
43.2 µM: COLO 205 colon
86.5 µM: RPMI-8226 leukemia

O=C1Cc2cn[nH]c2-c2ccccc2N1
> 100 µM: SF-295 CNS | OVCAR-8 ovarian | NCI/ADR-RES ovarian | MDA-N | HS 578T breast | IGROV1 ovarian | PC-3 prostate | SF-539 CNS
> 63.3 µM: HCT-15 colon
91.5 µM: TK-10 renal
> 62 µM: MDA-MB-231 breast
> 35.2 µM: CAKI-1 renal
> 69.8 µM: NCI-H460 lung
> 60.5 µM: UACC-257 melanoma
> 61.6 µM: U251 CNS
63.5 µM: UACC-62 melanoma
61.5 µM: BT-549 breast
> 64 µM: COLO 205 colon
> 63.9 µM: SN12C renal
66.1 µM: RPMI-8226 leukemia

CCCCCCCCCCCCCCCCNC(=O)/C(=C\c1ccc(Cl)c(Cl)c1)NC(=O)c1ccccc1
81.5 µM: SN12C renal
41.4 µM: IGROV1 ovarian
30.8 µM: SF-539 CNS
58.5 µM: RPMI-8226 leukemia
48.8 µM: TK-10 renal
40.3 µM: MDA-MB-231 breast
74.6 µM: PC-3 prostate
> 100 µM: SF-295 CNS | COLO 205 colon | NCI-H460 lung | OVCAR-8 ovarian | NCI/ADR-RES ovarian | MDA-N | BT-549 breast | U251 CNS | HS 578T breast | CAKI-1 renal | UACC-257 melanoma | HCT-15 colon

COC(=O)C(=O)Nc1cc2c3c(c1)Oc1cccc4c1C3(C)c1c(cccc1O2)O4
> 100 µM: UACC-62 melanoma | SF-295 CNS | TK-10 renal | NCI-H460 lung | OVCAR-8 ovarian | NCI/ADR-RES ovarian | MDA-N | BT-549 breast | U251 CNS | SN12C renal | HS 578T breast | CAKI-1 renal | UACC-257 melanoma | IGROV1 ovarian | PC-3 prostate | RPMI-8226 leukemia | MDA-MB-231 breast | HCT-15 colon
> 31.6 µM: COLO 205 colon
> 76.6 µM: SF-539 CNS

Cc1nn(C(=O)c2ccncc2)c2c1C(c1ccccc1[N+](=O)[O-])SC(N)=N2 (configuration not stated)
> 10 µM: UACC-62 melanoma | SF-295 CNS | COLO 205 colon | TK-10 renal | NCI-H460 lung | OVCAR-8 ovarian | NCI/ADR-RES ovarian | MDA-N | BT-549 breast | SN12C renal | HS 578T breast | CAKI-1 renal | UACC-257 melanoma | IGROV1 ovarian | PC-3 prostate | RPMI-8226 leukemia | SF-539 CNS | MDA-MB-231 breast | HCT-15 colon

CC(C)(C)OC(=O)N1CCCC1C(=O)NC(c1ccccc1)c1ccccc1 (configuration not stated)
> 100 µM: UACC-62 melanoma | SF-295 CNS | COLO 205 colon | TK-10 renal | NCI-H460 lung | OVCAR-8 ovarian | NCI/ADR-RES ovarian | MDA-N | BT-549 breast | U251 CNS | SN12C renal | HS 578T breast | CAKI-1 renal | UACC-257 melanoma | IGROV1 ovarian | PC-3 prostate | RPMI-8226 leukemia | SF-539 CNS | MDA-MB-231 breast | HCT-15 colon

O=C(Nc1ccccc1)OCCN=C1c2ccccc2CCc2ccccc21
37.2 µM: MDA-N
72.4 µM: NCI/ADR-RES ovarian
37.1 µM: MDA-MB-231 breast
36.1 µM: RPMI-8226 leukemia
58.2 µM: IGROV1 ovarian
34.1 µM: SF-295 CNS
34.8 µM: SF-539 CNS
44.4 µM: NCI-H460 lung
82.8 µM: PC-3 prostate
51.5 µM: HS 578T breast
32.1 µM: U251 CNS
40.2 µM: SN12C renal
54.2 µM: UACC-257 melanoma
> 100 µM: TK-10 renal | OVCAR-8 ovarian
26.7 µM: UACC-62 melanoma
42.1 µM: BT-549 breast
88 µM: CAKI-1 renal
33.1 µM: COLO 205 colon
48.2 µM: HCT-15 colon

CC(C)OP(=O)(OC(C)C)C(C)(C)O
> 100 µM: UACC-62 melanoma | SF-295 CNS | COLO 205 colon | TK-10 renal | OVCAR-8 ovarian | NCI/ADR-RES ovarian | MDA-N | BT-549 breast | U251 CNS | SN12C renal | HS 578T breast | CAKI-1 renal | UACC-257 melanoma | IGROV1 ovarian | PC-3 prostate | RPMI-8226 leukemia | SF-539 CNS | MDA-MB-231 breast | HCT-15 colon

CCCc1nc2c(n1CC)C(=O)c1ccccc1C2=O
78.7 µM: NCI/ADR-RES ovarian
45.6 µM: UACC-257 melanoma
> 100 µM: UACC-62 melanoma | SF-295 CNS | COLO 205 colon | TK-10 renal | NCI-H460 lung | BT-549 breast | U251 CNS | SN12C renal | HS 578T breast | IGROV1 ovarian | PC-3 prostate | RPMI-8226 leukemia | SF-539 CNS | MDA-MB-231 breast
98 µM: HCT-15 colon
49.4 µM: MDA-N

CCOC(=O)c1c[nH]c(C(=O)C=[N+]=[N-])c1C1CCN(CC)C1=S (configuration not stated)
> 100 µM: UACC-62 melanoma | SF-295 CNS | COLO 205 colon | TK-10 renal | NCI-H460 lung | OVCAR-8 ovarian | NCI/ADR-RES ovarian | MDA-N | BT-549 breast | U251 CNS | HS 578T breast | CAKI-1 renal | UACC-257 melanoma | IGROV1 ovarian | PC-3 prostate | RPMI-8226 leukemia | MDA-MB-231 breast | HCT-15 colon

CC(=O)/C(=C\I)c1ccccc1
40.5 µM: HS 578T breast
3.14 µM: COLO 205 colon
3.96 µM: UACC-62 melanoma
26.8 µM: TK-10 renal
5.37 µM: U251 CNS
3.35 µM: HCT-15 colon
5.08 µM: PC-3 prostate
33.7 µM: SF-295 CNS
3.45 µM: OVCAR-8 ovarian
3.39 µM: BT-549 breast
34.2 µM: SF-539 CNS
25 µM: NCI/ADR-RES ovarian
4.25 µM: IGROV1 ovarian
15.5 µM: UACC-257 melanoma
5.26 µM: RPMI-8226 leukemia
3.28 µM: MDA-N
3.74 µM: MDA-MB-231 breast
24.7 µM: NCI-H460 lung

COc1cc2cc(C(=O)N3CC(CCl)c4ccc([N+](C)(C)Cc5ccccc5[N+](=O)[O-])cc43)[nH]c2c(OC)c1OC (configuration not stated)
25.9 µM: PC-3 prostate
17.7 µM: IGROV1 ovarian
14.9 µM: COLO 205 colon
6.75 µM: UACC-257 melanoma
34.2 µM: NCI/ADR-RES ovarian
2.76 µM: UACC-62 melanoma
5.38 µM: SF-539 CNS
11.7 µM: HS 578T breast
> 31.9 µM: MDA-MB-231 breast
6.29 µM: BT-549 breast
> 25.5 µM: OVCAR-8 ovarian
36.5 µM: SF-295 CNS
26.4 µM: U251 CNS | SN12C renal
> 100 µM: TK-10 renal | HCT-15 colon
14.5 µM: CAKI-1 renal
6.49 µM: MDA-N
5.3 µM: RPMI-8226 leukemia

Cc1c(/C=N/NC(=S)N2CCCCC2)c(=O)n(-c2ccccc2)n1C
> 100 µM: UACC-62 melanoma | SF-295 CNS | COLO 205 colon | TK-10 renal | NCI-H460 lung | OVCAR-8 ovarian | NCI/ADR-RES ovarian | MDA-N | BT-549 breast | U251 CNS | HS 578T breast | CAKI-1 renal | UACC-257 melanoma | IGROV1 ovarian | PC-3 prostate | RPMI-8226 leukemia | SF-539 CNS | MDA-MB-231 breast | HCT-15 colon

CSc1nc(=O)cnn1C
> 100 µM: UACC-62 melanoma | SF-295 CNS | COLO 205 colon | TK-10 renal | NCI-H460 lung | OVCAR-8 ovarian | NCI/ADR-RES ovarian | MDA-N | BT-549 breast | U251 CNS | SN12C renal | HS 578T breast | CAKI-1 renal | UACC-257 melanoma | IGROV1 ovarian | PC-3 prostate | RPMI-8226 leukemia | MDA-MB-231 breast | HCT-15 colon

COC(=O)C(=O)C(C(=O)C(=O)Nc1ccc(C)cc1C)c1nc2ccc(Cl)cc2[nH]c1=O (configuration not stated)
> 100 µM: UACC-62 melanoma | SF-295 CNS | COLO 205 colon | TK-10 renal | NCI-H460 lung | OVCAR-8 ovarian | NCI/ADR-RES ovarian | MDA-N | BT-549 breast | U251 CNS | SN12C renal | HS 578T breast | CAKI-1 renal | UACC-257 melanoma | IGROV1 ovarian | PC-3 prostate | SF-539 CNS | MDA-MB-231 breast | HCT-15 colon

CCOc1ccc(NC(=O)C(=O)Nn2c(N)nnc2N)cc1
> 100 µM: UACC-62 melanoma | SF-295 CNS | TK-10 renal | NCI-H460 lung | OVCAR-8 ovarian | NCI/ADR-RES ovarian | MDA-N | BT-549 breast | U251 CNS | SN12C renal | HS 578T breast | CAKI-1 renal | UACC-257 melanoma | IGROV1 ovarian | PC-3 prostate | RPMI-8226 leukemia | SF-539 CNS | MDA-MB-231 breast | HCT-15 colon

O=C1NC(N/N=C\c2ccccc2)=N/C1=C/c1ccccc1
43.5 µM: SF-539 CNS
80.7 µM: HS 578T breast
87 µM: CAKI-1 renal
> 100 µM: SF-295 CNS | COLO 205 colon | TK-10 renal | NCI-H460 lung | OVCAR-8 ovarian | MDA-N | U251 CNS | SN12C renal | UACC-257 melanoma | IGROV1 ovarian | RPMI-8226 leukemia | MDA-MB-231 breast | HCT-15 colon
85.9 µM: NCI/ADR-RES ovarian
71.2 µM: BT-549 breast
98.4 µM: PC-3 prostate

C=CCN1CCC(c2cc(C(=O)OCC)[nH]c2-c2cc(C)no2)C1=O (configuration not stated)
> 100 µM: UACC-62 melanoma | SF-295 CNS | COLO 205 colon | NCI-H460 lung | OVCAR-8 ovarian | NCI/ADR-RES ovarian | MDA-N | BT-549 breast | U251 CNS | SN12C renal | HS 578T breast | CAKI-1 renal | UACC-257 melanoma | IGROV1 ovarian | PC-3 prostate | RPMI-8226 leukemia | SF-539 CNS | MDA-MB-231 breast | HCT-15 colon
